Assay results published in patent publication US10465196B2, “Treatment of C9FTD/ALS by targeting RNA expanded repeat sequences” (THE SCRIPPS RESEARCH INSTITUTE, priority 2014, dated 2019).
Entries after “also recorded” stand apart in the source; their conditions may differ.

Columns and labels:
[1] = tested on: (GGGGCC)66-expressing cells; test: Western blot analysis of c9RAN proteins (RAN translation); format: cell-based; settings: HEK293 cells; 100 μM, 24 h (for compound 3)
[2] = tested on: (GGGGCC)66-expressing cells; test: RNA-FISH of nuclear foci; format: cell-based; settings: compound treatment 24 h
Protocol: RNA fluorescence in situ hybridization (FISH) of ([NT]-expressing cells. […] Cells were hybridized with denatured Cy3-conjugated ([NT])4 probe (2 ng/μl) in hybridization buffer (50% formamide, 10% dextran sulfate, 0.1 mg/mL yeast tRNA, 2×SSC, 50 mM sodium phosphate) overnight at 37° C. Cells were then washed once with 40% formamide/1×SSC for 30 min at 37° C. and twice with DEPC-PBS at room temperature for 5 min, followed by counterstaining with Hoechst 33258 (1 μg/ml, Invitrogen). Immunostained cells were visualized using a Zeiss Axiovert Fluorescence Microscope with apotome module. […] To quantify foci-bearing cells, coverslips mounted on slides were scanned by Aperio ScanScope. Ten fields were randomly selected under 20× magnification. For each field, the number of foci-positive nuclei and the total number of nuclei were counted using MetaMorph software. These counts were used to determine the average percentage of foci-positive cells for each condition.

[3] = tested on: C9ORF72+ iNeurons; test: Poly(GP) and poly(PR) inclusions in iNeurons (immunocytochemistry); format: cell-based, human; settings: 2 or 4 μM, four days
[4] = tested on: r(CGG)60-expressing cells; settings: cited from earlier work
[5] = biological target: r(GGGGCC)8; test: Biolayer interferometry (BLI) binding affinity, r(GGGGCC)8; settings: BLI kinetic binding; no additional cation
Protocol: (§1) The RNA (200 μL aliquots) was then added to a black 96-well plate (Greiner Bio-One). […] A sample with no compound was used as background. All experiments were performed at 30° C. with agitation set to 1000 rpm. The biotinylated RNA (ligand) was loaded onto the surface of streptavidin biosensors (SA) for 660 s. […] Biosensors were then washed in 1× Kinetics Buffer for 300 s followed by association of the compound (analyte) for 5000 s. Finally, dissociation of the ligand-analyte interaction was analyzed for 5000 s. The resulting curves were corrected by subtracting the response recorded on a sensor loaded with ligand (RNA) but incubated with no analyte (compound). Data analyses and curve fitting were completed using Octet Data Analysis, version 7.0. Experimental data were fitted using the 2:1 heterogeneous ligand (HL) curve fit. Global analysis of all data sets acquired for different analyte concentrations, assuming reversible binding, was completed using nonlinear least squares fitting. […] [formula] where [Analyte] is the concentration of compound, Req is the estimated response at equilibrium, kon is association constant, koff is dissociation constant.

[6] = tested on: r(GGGGCC)66; test: Identification of cellular RNA targets by 1a-CA-biotin pull-down and qRT-PCR (competitive profiling); format: cell-based; settings: co-treatment with 1a-CA-biotin and compound
[7] = tested on: r(CCCCGG)66-expressing cells; test: RNA-FISH of cells expressing antisense repeats; format: cell-based
Protocol: Western blot analysis and RNA-FISH of cells expressing antisense repeats. To examine the effect of 1a on RAN translation and foci formation in cells expressing antisense ([NT]) repeats, we utilized a previously described ([NT])66 expression vector (Gendron et al., 2013). Transfection, treatment, Western blotting, and RNA-FISH using a [NT] probe from IDT, were conducted as described above for ([NT])66-expressing cells.

[8] = tested on: C9ORF72+ iNeurons; test: RNA-FISH of RNA foci in iNeurons; format: cell-based, human; settings: three C9ORF72+ iNeuron lines; 2 μM, four days
Protocol: Qiagen) for 15 min at 37° C., or with DNase I (3 U/ml; Invitrogen) for 30 minutes at room temperature, prior to dehydration. Cells were incubated in hybridization buffer (10% dextran sulfate, 50% formamide, 50 mM sodium phosphate buffer (pH 7), 2×SSC) at 66° C. for 20-60 min. […] Cells were hybridized with probe in a sealed, light-protected chamber for 16 h-24 h at 66° C. The coverslips were subsequently washed with 0.1% Tween-20/2×SSC for 5 min followed by three 10 min stringency washes in 0.1×SSC at 66° C. The cells were stained with Hoechst (Invitrogen), rinsed with DEPC-treated water, dehydrated through 70% and 100% ethanol and air dried. Coverslips were mounted with Prolong Gold antifade reagent (Life Technologies). […] For each of 3 cell lines, 3 fields were randomly selected per condition. For each field, the number of foci-positive nuclei and the total number of nuclei were counted to determine the average percentage of foci-positive cells.

[9] = tested on: C9ORF72 mRNA; test: qRT-PCR of C9ORF72 mRNA in iNeurons; format: cell-based, human; settings: 4 μM, 4 d; all variants and long form
Protocol: RNA was extracted using the Direct-Zol RNA kit combined with in-column DNase I digestion, as per the manufacturer's instructions (Zymo Research, Irvine, Calif., USA). RNA integrity was obtained using the Agilent 2100 Bioanalyzer (Agilent Technologies, Santa Clara, Calif., USA). cDNA was obtained after reverse transcription polymerase chain reactions (RT-PCR) using approximately 500 ng of RNA with random primers and the High Capacity cDNA Transcription Kit (Applied Biosystems, Foster City, Calif., USA) as per the manufacturer's instructions. […] Relative quantification of C9ORF72 variants was determined using the ΔΔCt method and normalized to GAPDH.

[10] = tested on: r(CCCCGG)66-expressing cells; test: RAN translation in cells expressing antisense repeats (immunoassay); format: cell-based; settings: 100 μM, 24 h
Protocol: Immunoassay analysis of c9RAN proteins. As an alternative means to measure poly(GP) proteins, Meso Scale Discovery (MSD) electrochemiluminescence detection technology was utilized to establish sandwich immunoassays using polyclonal anti-GP as capture and detection antibodies. […] Poly(GP) proteins were also measured in lysates from cultured cells (10-35 μg of protein per well) prepare as described above, or from RIPA-soluble homogenates from frozen frontal cortical tissues (35 μg of protein per well). Brain homogenates were prepared as previously described (Almeida et al., 2013). In brief, tissue was lysed in cold RIPA buffer and sonicated on ice. Lysates were cleared by centrifugation at 100,000 g for 30 min at 4° C. The supernatant was collected and protein concentration was determined by BCA assay. […] A second MSD sandwich immunoassay was developed for the detection of poly(PR) proteins using polyclonal anti-PR as capture and detection antibodies. To validate specificity of the poly(PR) assay, lysates from cells transfected to express each possible protein RAN translated from the sense or antisense transcripts of the expanded C9ORF72 repeat [GFP-(GA)5, GFP-(GR)5, GFP-(GP)5, GFP-(PA)5, GFP-(PR)5] were assayed, as were lysates from cells expressing ([…]. 2F). Western blot analysis and RNA-FISH of cells expressing antisense repeats. […]

[11] = tested on: hairpin with a fully paired stem; test: Biolayer interferometry (BLI) binding affinity, fully paired hairpin
Protocol: as §1

[12] = biological target: r(CGG)12; test: Biolayer interferometry (BLI) binding affinity, r(CGG)12
Protocol: as §1

[13] = tested on: cells expressing (CGG)88 placed in the 5'UTR of GFP; test: Western blot analysis of RAN translation in a FXTAS cell model; format: cell-based; settings: COS7 cells, anti-GFP
Protocol: Western blot analysis of RAN translation in a FXTAS cell model. Studies were completed using a plasmid in which r(CGG)88 is embedded in the 5′ UTR of an open reading frame encoding GFP (Todd et al., 2013). Therefore, RAN products are fused to GFP and can be detected using an anti-GFP antibody (Todd et al., 2013). COS7 cells were grown as monolayers in 96-well plates in growth medium (1× DMEM, 10% FBS, and 1× GlutaMax (Invitrogen)). […] Compound 1a was added to the transfection cocktail, which was then applied to the cells. The transfection cocktail was replaced with growth medium containing 1a approximately 5 h post transfection, and the cells were incubated at 37° C. for 18 h. Cells were lysed in the plate using 100 μl/well of MPER Mammalian Protein Extraction Reagent (Pierce Biotechnology) containing 1 μl of Halt Protease Inhibitor cocktail (Thermo Scientific). Cellular proteins were separated by SDS-PAGE (10% polyacrylamide) and then transferred to a PVDF membrane by wet transfer method. Protein content was analyzed by Western blotting by using anti-GFP (Santa Cruz) or anti-β-actin (Sigma Aldrich) as primary antibodies and anti-IgG-horseradish peroxidase conjugate as the secondary antibody. Chemiluminescent signal was generated by SuperSignal West Pico Chemiluminescent substrate (Thermo Scientific), and the blot was imaged with X-ray film (Phenix Research).

[14] = tested on: (GGGGCC)66-expressing cells; test: Poly(GP) MSD immunoassay of cell lysates; format: cell-based; settings: 24 h
Protocol: Western blot analysis of c9RAN proteins. HEK293 cells were cultured in Opti-Mem supplemented with 10% FBS and 1% penicillin/streptomycin. […] Twenty-four hours later, cell pellets were collected. […] Western blotting was performed as previously described (Gendron et al., 2013). […] After centrifugation at 16,000×g for 20 min at 4° C., the supernatant was collected and protein concentration determined by BCA assay. […] Anti-GAPDH (1:10,000, BioDesign) was used to ensure equal loading among wells. Membranes were washed three times for 10 min in TBST and incubated with donkey anti-rabbit or anti-mouse IgG conjugated to horseradish peroxidase (1:5000; […] Protein expression was visualized by enhanced chemiluminescence treatment and exposure to film. Immunoassay analysis of c9RAN proteins. As an alternative means to measure poly(GP) proteins, Meso Scale Discovery (MSD) electrochemiluminescence detection technology was utilized to establish sandwich immunoassays using polyclonal anti-GP as capture and detection antibodies. […] Poly(GP) proteins were also measured in lysates from cultured cells (10-35 μg of protein per well) prepare as described above, or from RIPA-soluble homogenates from frozen frontal cortical tissues (35 μg of protein per well). Brain homogenates were prepared as previously described (Almeida et al., 2013). In brief, tissue was lysed in cold RIPA buffer and sonicated on ice. Lysates were cleared by centrifugation at 100,000 g for 30 min at 4° C. The supernatant was collected and protein concentration was determined by BCA assay.

[15] = tested on: r(GGGGCC)8; test: Optical melting of r(GGGGCC)8 in the presence of small molecule; format: binding; settings: for increase of Tm of r(GGGGCC)8 / stabilization of the RNA (r(GGGGCC)8 stability): 1 μM RNA, 3 μM compound; for increase of Tm of r(GGGGCC)8 / stabilization of the RNA (r(GGGGCC)8 stability) / ΔG / Tm: 100 mM NaCl; for ΔG: 37° C.; for ΔG / ΔH / ΔS / Tm: r(GGGGCC)8 1 uM + compound 3 μM; for ΔH / ΔS: 10 mM Tris HCl pH 7.4, 100 mM NaCl
[16] = tested on: r(GGGGCC)8; settings: cited from earlier work

SMILES | poly(GA) protein production (RAN translation) [1] | synthesis of poly(GP) proteins (RAN translation) [1] | percentage of foci-positive cells [2] | Kd [5] | amount of r(GGGGCC)66 that forms an adduct with 1a-CA-biotin in the presence of compound [6] | binding to a hairpin with a fully paired stem compared with r(GGGGCC)8 [11] | Kd for r(CGG)12 compared with r(GGGGCC)8 [12] | increase of Tm of r(GGGGCC)8 [15] | stabilization of the RNA (r(GGGGCC)8 stability) [15] | ΔG [15] | ΔH [15] | ΔS [15] | Tm [15] | other results
Cc1c2cc[n+](CCN3CCCCC3)cc2c(C)c2c1[nH]c1ccc(O)cc12 [Compound 1a] | significantly decreased | significantly decreased | significantly decreased | 9.7 µM | significantly depleted | bind more weakly | similar | 3.1 °C | 0.95 kcal/mol | -9.93 ± 0.15 kcal/mol | -74.4 ± 1.0 kcal/mol | -208 ± 3 cal/K · mol | 84.7 ± 0.2 °C | poly(PR) expression (inclusions), synthesized from the antisense transcript [3]: no change; percentage of cells with poly(GP) inclusions (RAN translation of poly(GP)) ([3]; listed as la): significantly decreased; also recorded: dose-dependent decrease; nuclear foci in r(CGG)60-expressing cells [4]: does reduce nuclear foci; percentage of cells bearing r(CCCCGG) foci [7]: no change; percentage of cells with RNA foci [8]: significantly decreased; C9ORF72 mRNA levels [9]: no effect; poly(GP) proteins RAN translated from antisense transcripts [10]: no effect; poly(PR) proteins RAN translated from antisense transcripts [10]: no effect; RAN translation in cells expressing (CGG)88 [13]: inhibits RAN translation; downstream canonical translation (GFP) [13]: does not affect; decrease in poly(GP) protein ([14]; 25 μM): 10%; decrease in poly(GP) protein ([14]; 50 μM): 18%; decrease in poly(GP) protein ([14]; 100 μM): 47%
CCN(CC)CCNC(=O)c1cc2cc(NC(=O)c3cc4cc(N)ccc4[nH]3)ccc2[nH]1 [Compound 3] | did not influence | modestly inhibited | not | 16 µM | significantly depleted | bind more weakly | similar | did not significantly affect | did not significantly affect | -9.10 ± 0.24 kcal/mol | -71.1 ± 1.5 kcal/mol | -200 ± 4 cal/K · mol | 82.2 ± 0.2 °C | –
C[n+]1ccc(-c2c3nc(c(-c4cc[n+](C)cc4)c4ccc([nH]4)c(-c4cc[n+](C)cc4)c4ccc([nH]4)c(-c4cc[n+](C)cc4)c4nc2C=C4)C=C3)cc1 [TMPyP4] | – | – | – | – | – | – | – | – | – | – | – | – | – | binding to r(GGGGCC)8 in vitro [16]: binds
